Assay results reported in article PMC3350798 (Journal of Medicinal Chemistry, 2012).
“Also recorded” adds a separate entry of the source. Where two headings read alike, the source gives them in different places. Each block holds one compound with its values, some of them ahead of it.

Legend:
[1] = tested on: 60 human cancer cell lines; conditions: read-out: MGM GI50, mean graph midpoint; cited from earlier work
[2] = biological target: T1, Tdp1 (Homo sapiens, UniProt Q9NUW8); conditions: cited from earlier work
T1 sequence (Q9NUW8 whole entry): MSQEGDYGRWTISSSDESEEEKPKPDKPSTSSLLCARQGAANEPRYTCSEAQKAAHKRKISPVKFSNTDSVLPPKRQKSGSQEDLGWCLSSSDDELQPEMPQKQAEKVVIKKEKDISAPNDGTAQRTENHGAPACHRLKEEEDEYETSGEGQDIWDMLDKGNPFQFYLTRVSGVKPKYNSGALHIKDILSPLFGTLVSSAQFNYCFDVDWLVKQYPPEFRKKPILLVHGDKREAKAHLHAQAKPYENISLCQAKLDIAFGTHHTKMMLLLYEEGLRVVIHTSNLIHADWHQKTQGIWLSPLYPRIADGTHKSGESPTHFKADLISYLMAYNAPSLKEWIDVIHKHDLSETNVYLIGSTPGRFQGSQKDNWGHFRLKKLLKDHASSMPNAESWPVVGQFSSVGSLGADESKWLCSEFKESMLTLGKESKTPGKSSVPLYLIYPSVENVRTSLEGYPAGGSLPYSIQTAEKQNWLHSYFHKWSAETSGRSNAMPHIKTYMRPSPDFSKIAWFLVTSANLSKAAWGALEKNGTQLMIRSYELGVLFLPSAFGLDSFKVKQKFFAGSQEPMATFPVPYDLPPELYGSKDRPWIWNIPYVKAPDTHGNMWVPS

[3] = biological target: T1, Tdp1; assay: FRET assay, mechanism of inhibition of Tdp1; assay type: biochemical
[4] = biological target: T1, Tdp1; assay: Surface plasmon resonance binding to amine coupled Tdp1; conditions: 33, 11, 3.7, 1.2 and 0.4 μM injected over amine coupled Tdp1
[5] = biological target: T2, Human recombinant Top1 (Homo sapiens, UniProt P11387); assay: Topoisomerase I-mediated DNA cleavage assay; assay type: biochemical; conditions: semiquantitative, relative to 1 μM camptothecin
T2 sequence (P11387 1-765): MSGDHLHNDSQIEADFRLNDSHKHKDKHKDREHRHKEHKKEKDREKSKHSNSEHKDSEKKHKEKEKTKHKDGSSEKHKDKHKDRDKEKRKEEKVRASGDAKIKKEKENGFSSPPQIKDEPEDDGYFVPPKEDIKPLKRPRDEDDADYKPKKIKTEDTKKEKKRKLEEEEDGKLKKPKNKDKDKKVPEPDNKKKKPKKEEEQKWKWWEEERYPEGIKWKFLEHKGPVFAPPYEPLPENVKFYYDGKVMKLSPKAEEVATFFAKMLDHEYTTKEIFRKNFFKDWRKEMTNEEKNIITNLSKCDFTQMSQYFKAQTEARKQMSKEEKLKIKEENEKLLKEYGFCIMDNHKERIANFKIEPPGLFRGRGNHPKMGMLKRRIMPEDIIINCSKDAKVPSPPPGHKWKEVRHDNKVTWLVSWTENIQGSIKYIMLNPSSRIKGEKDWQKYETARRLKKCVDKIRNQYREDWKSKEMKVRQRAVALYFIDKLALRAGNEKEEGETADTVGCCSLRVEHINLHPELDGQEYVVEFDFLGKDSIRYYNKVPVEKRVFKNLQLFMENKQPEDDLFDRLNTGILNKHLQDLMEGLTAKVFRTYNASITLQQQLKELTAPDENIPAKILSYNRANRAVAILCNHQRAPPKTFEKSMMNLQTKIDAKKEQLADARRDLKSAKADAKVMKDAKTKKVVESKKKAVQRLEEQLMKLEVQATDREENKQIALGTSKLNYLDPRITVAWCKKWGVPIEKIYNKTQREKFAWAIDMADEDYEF

Compound: O=C1c2ccccc2-c2c1c1ccccc1c(=O)n2CCCNCCCNCCCn1c2c(c3ccccc3c1=O)C(=O)c1ccccc1-2 [compound 145, Bis-1,3-{(5,6-dihydro-5,11-diketo-11H-indeno[1,2-c]isoquinoline)-6-propylamino}propane Bis(trifluoroacetate)]
GI50 [1]: 394 nM

Compound: [O]=[V]([O-])([O-])[O-] [vanadate]
Tdp1 inhibition [2]: inhibition at millimolar concentrations

Mechanism of inhibition of Tdp1 [3]: competitive inhibitor
Compound: Cl.NCCCn1c2c(c3ccccc3c1=O)C(=O)c1ccccc1-2 [compound 70]
Binding to Tdp1 by surface plasmon resonance [4]: direct binding; also recorded: rapidly reaches equilibrium and then completely dissociates

Compound: Cl.NCCCCCCCCCCCCn1c2c(c3ccccc3c1=O)C(=O)c1ccccc1-2 [compound 79]
Top1 (compound-induced DNA cleavage due to Top1 inhibition) [5]: 0/+

Compound: C[C@]12CC[C@H]3[C@@H](CCC4=CC(=O)CC[C@@]43C)[C@@H]1CC[C@@H]2C(=O)COS(=O)(=O)c1ccc(Br)cc1 [compound 7, 4-Pregnen-21-ol-3,20-dione-21-(4-bromobenzenesufonate)]
Mechanism of inhibition of Tdp1 [2]: competitive with the DNA substrate
